The source made the active and inactive calls. The rule behind the calls is not given here.
Assays:
Mus musculus [1] = experiment: Effect of compound in C57BL/6 mouse catalepsy model assessed as no catalepsy at 150 mg/kg, po bid administered for every 4 hrs; type: functional, organism-based
[2] = In vivo receptor occupancy at DAO in C57BL/6 mouse cerebellum at 150 mg/kg, po measured after 10 hrs relative to control; type: functional
[3] = In vivo receptor occupancy at DAO in C57BL/6 mouse cerebellum at 150 mg/kg, po measured after 4 hrs relative to control; type: functional
[4] = In vivo receptor occupancy at DAO in C57BL/6 mouse cerebellum at 150 mg/kg, po measured after 6 hrs relative to control; type: functional
Adenosine receptor A3 = target: T1, Adenosine receptor A3 (Homo sapiens, UniProt P0DMS8); experiment: Inhibition of recombinant human adenosine A3 GPCR incubated for 120 mins by scintillation counting based radiometry assay
T1 sequence (P0DMS8 whole entry): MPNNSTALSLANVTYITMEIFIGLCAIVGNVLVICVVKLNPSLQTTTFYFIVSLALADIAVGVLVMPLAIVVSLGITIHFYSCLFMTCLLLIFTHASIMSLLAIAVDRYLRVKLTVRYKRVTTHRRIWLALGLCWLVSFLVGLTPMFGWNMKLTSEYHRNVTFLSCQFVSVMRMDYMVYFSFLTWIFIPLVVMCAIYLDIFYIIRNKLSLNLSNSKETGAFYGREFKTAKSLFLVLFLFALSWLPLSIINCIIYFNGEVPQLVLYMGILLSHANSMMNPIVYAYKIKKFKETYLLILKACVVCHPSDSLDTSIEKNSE

[5] = target: T2, Polyunsaturated fatty acid 5-lipoxygenase (Homo sapiens, UniProt P09917); experiment: Inhibition of human recombinant 5-LOX incubated for 5 mins by fluorimetry
T2 sequence (P09917 whole entry): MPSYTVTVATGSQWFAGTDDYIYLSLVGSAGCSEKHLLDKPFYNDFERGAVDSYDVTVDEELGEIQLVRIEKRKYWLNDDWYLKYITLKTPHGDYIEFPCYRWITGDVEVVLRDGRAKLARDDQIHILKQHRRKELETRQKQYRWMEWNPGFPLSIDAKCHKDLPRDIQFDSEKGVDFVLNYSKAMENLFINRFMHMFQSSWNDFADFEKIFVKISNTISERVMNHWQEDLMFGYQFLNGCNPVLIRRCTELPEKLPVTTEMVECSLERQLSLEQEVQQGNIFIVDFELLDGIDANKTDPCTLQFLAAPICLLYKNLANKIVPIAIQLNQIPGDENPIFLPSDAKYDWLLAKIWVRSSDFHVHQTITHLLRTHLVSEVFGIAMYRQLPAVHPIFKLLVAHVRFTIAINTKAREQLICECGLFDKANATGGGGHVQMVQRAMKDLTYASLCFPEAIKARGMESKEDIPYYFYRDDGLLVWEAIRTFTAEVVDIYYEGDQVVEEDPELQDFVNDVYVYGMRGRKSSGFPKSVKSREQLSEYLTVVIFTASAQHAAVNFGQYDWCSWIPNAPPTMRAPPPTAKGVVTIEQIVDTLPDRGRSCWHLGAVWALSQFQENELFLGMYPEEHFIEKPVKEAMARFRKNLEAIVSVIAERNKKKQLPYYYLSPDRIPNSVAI

[6] = target: T3, Prostaglandin G/H synthase 2 (Homo sapiens, UniProt P35354); experiment: Inhibition of human COX2
T3 sequence (P35354 whole entry): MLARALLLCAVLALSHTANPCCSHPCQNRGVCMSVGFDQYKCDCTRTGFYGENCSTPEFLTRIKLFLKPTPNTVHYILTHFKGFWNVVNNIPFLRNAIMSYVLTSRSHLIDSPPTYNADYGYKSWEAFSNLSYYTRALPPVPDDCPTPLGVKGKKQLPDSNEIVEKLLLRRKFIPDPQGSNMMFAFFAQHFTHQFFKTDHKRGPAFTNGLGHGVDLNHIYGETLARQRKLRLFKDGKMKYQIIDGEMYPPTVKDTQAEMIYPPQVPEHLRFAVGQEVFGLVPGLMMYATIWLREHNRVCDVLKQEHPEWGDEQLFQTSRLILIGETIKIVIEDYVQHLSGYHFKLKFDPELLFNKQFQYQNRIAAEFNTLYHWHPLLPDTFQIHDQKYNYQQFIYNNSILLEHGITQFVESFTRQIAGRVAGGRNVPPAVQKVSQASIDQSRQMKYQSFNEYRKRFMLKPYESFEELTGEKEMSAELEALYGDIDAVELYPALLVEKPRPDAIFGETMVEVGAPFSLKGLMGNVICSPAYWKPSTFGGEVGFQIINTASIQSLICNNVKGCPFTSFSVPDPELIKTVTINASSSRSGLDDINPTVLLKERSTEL

D-amino-acid oxidase [7] = target: D-amino-acid oxidase (Mus musculus, UniProt P18894); experiment: Inhibition of full length mouse DAO transfected with CHO-K1 cells incubated for 30 mins by Amplex red and horseradish peroxidase based fluorescence assay; type: cell-based
[8] = target: T4, Peroxisome proliferator-activated receptor gamma (Homo sapiens, UniProt P37231); experiment: Inhibition of recombinant human PPAR gamma NHR incubated for 120 mins by scintillation counting based radiometry assay
T4 sequence (P37231 whole entry): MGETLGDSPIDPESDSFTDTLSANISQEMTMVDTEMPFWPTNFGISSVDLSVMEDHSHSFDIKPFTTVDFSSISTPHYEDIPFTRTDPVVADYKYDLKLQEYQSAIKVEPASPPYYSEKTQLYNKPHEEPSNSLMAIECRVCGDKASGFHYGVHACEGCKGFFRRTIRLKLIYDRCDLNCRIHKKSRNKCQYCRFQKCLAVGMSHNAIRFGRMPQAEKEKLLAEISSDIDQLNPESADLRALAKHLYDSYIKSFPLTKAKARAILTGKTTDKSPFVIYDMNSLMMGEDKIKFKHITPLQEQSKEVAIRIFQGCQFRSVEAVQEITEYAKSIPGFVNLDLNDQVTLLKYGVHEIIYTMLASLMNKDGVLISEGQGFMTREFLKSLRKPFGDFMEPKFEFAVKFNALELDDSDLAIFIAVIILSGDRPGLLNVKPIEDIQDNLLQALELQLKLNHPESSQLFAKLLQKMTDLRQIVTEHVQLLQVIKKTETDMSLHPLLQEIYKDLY

Mus musculus [9] = experiment: Effect of compound in C57BL/6 mouse catalepsy model assessed as decrease in plasma prolactin level at 150 mg/kg, po bid administered for every 4 hrs; type: functional, organism-based
Glucocorticoid receptor = target: T5, Glucocorticoid receptor (Homo sapiens, UniProt P04150); experiment: Inhibition of GR human glucocorticoid NHR incubated for 360 mins by scintillation counting based radiometry assay
T5 sequence (P04150 whole entry): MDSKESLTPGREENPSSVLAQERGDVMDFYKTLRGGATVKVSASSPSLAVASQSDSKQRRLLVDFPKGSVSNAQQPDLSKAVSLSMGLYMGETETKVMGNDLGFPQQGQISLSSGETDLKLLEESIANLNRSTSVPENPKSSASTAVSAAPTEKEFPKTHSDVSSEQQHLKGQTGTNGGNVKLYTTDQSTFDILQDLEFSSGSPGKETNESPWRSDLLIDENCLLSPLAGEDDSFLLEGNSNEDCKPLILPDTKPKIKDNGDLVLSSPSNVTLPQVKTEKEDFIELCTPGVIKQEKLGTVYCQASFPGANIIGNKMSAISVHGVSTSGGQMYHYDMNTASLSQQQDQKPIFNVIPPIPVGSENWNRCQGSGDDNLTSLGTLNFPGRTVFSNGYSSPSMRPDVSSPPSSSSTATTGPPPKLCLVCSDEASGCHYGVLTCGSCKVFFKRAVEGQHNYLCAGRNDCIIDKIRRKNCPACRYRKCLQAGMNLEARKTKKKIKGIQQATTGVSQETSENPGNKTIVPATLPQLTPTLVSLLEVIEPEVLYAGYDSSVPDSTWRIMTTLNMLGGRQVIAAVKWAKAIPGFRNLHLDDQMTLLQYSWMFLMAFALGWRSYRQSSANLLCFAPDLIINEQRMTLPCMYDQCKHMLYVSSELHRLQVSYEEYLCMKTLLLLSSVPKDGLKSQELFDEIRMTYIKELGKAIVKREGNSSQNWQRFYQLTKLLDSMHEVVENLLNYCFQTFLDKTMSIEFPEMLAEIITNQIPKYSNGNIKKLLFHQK

[10] = Volume of distribution at steady state in C57/BL6 mouse at 2 mg/kg, po or 0.5 mg/kg,iv by LC-MS-MS analysis; type: ADME, organism-based; settings: in vivo
[11] = Unbound drug concentration in C57Bl/6 mouse brain at 2 mg/kg, po or 0.5 mg/kg,iv by LC-MS-MS analysis; type: ADME, organism-based; settings: C57Bl/6, mouse, brain
[12] = Brain to plasma permeability coefficient, Kp in C57Bl/6 mouse 2 mg/kg, po or 0.5 mg/kg,iv by LC-MS-MS analysis; type: ADME, organism-based; settings: C57Bl/6, mouse, brain and plasma, read-out: Kp
D-amino-acid oxidase [13] = target: D-amino-acid oxidase (Homo sapiens, UniProt P14920); experiment: Inhibition of recombinant full length human DAO preincubated with compound for 20 mins measured after 4 hrs by Amplex red and horseradish peroxidase based fluorescence assay
[14] = Oral bioavailability in C57/BL6 mouse at 2 mg/kg by LC-MS-MS analysis; type: ADME, organism-based; settings: in vivo
[15] = Half life in C57/BL6 mouse at 0.5 mg/kg,iv by LC-MS-MS analysis; type: ADME, organism-based; settings: in vivo
[16] = Efflux ratio of apparent permeability across basolateral to apical side over apical to basolateral side in MDCK-MDR1 cells; settings: dog
[17] = Unbound brain-to-plasma concentration ratio in C57Bl/6 mouse at 2 mg/kg, po or 0.5 mg/kg,iv by LC-MS-MS analysis; type: ADME, organism-based; settings: C57Bl/6, mouse, brain and plasma, read-out: K(p,uu,brain)
[18] = Apparent permeability across apical to basolateral membrane in MDCK-MDR1 cells by LC-MS/MS analysis; settings: dog
[19] = Unbound drug concentration in C57Bl/6 mouse plasma at 2 mg/kg, po or 0.5 mg/kg,iv by LC-MS-MS analysis; type: ADME, organism-based; settings: C57Bl/6, mouse, plasma
[20] = Dose normalized AUC in C57/BL6 mouse at 2 mg/kg, po by LC-MS-MS analysis; type: ADME, organism-based; settings: in vivo

Sequence of D-amino-acid oxidase (Mus musculus, UniProt P18894) (P18894 whole entry): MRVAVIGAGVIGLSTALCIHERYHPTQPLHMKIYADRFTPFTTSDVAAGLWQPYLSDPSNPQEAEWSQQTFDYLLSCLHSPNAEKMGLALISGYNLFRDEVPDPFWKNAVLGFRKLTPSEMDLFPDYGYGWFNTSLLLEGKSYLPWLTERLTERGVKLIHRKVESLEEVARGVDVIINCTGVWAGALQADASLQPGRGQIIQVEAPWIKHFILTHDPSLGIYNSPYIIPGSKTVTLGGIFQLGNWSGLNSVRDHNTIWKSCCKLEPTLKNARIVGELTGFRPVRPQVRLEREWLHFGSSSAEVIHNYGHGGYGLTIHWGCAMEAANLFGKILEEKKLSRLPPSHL
Sequence of D-amino-acid oxidase (Homo sapiens, UniProt P14920) (P14920 whole entry): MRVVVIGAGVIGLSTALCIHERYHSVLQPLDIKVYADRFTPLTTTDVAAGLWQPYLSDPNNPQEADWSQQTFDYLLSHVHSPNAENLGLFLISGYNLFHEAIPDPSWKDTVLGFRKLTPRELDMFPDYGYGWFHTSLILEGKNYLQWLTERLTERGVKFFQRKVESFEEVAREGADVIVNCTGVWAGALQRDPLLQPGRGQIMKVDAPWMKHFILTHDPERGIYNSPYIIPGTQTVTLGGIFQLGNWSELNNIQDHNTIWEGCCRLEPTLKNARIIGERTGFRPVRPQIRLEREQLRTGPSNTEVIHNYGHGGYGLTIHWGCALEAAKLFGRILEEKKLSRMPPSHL

Compound: O=c1[nH]cc(CSc2ccc(C(F)(F)F)cc2)[nH]c1=O
- Activity (Mus musculus [1]): Active
- Activity [2]: 59%
- Activity [3]: 75%
- Activity [4]: 86%
- IC50 (Adenosine receptor A3): > 10 µM
- IC50 [5]: > 10 µM
- IC50 [6]: > 10 µM
- EC50 (D-amino-acid oxidase [7]): 0.51 µM
- IC50 [8]: > 10 µM
- Activity (Mus musculus [9]): Active
- IC50 (Glucocorticoid receptor): > 10 µM

Compound: O=c1[nH]cc(CSc2ccc(C(F)F)cc2)[nH]c1=O
- IC50 (Adenosine receptor A3): > 10 µM
- IC50 [5]: > 10 µM
- IC50 [6]: > 10 µM
- EC50 (D-amino-acid oxidase [7]): 0.62 µM
- IC50 [8]: > 10 µM
- IC50 (Glucocorticoid receptor): > 10 µM

Compound: O=c1[nH]c2ccsc2[nH]c1=O
- Vdss [10]: 0.2 L/kg
- fraction unbound [11]: 0.26
- Kp [12]: 0.004
- IC50 (D-amino-acid oxidase [13]): 0.12 µM
- bioavailability [14]: 34%
- half-life [15]: 1.2 h
- efflux ratio [16]: 0.8
- Kp uu [17]: 0.005
- Papp A→B [18]: 8.8 ×10⁻⁶ cm/s
- fraction unbound [19]: 0.22
- AUC/dose [20]: 6266 ng·h/mL

Source: ChEMBL document CHEMBL5154896, “Discovery of a Novel Class of d-Amino Acid Oxidase Inhibitors Using the Schrödinger Computational Platform” (J Med Chem, 2022)
